Assays:
[1] = molecular target: T1, Avi-KRAS G12C (1-169) GppNHp/RAF1 RBD-3×FLAG (52-151) (Homo sapiens, UniProt P01116, G12C); assay: Raf1 RBD-KRAS G12C-GppNHp disruption assay (protein:protein interaction HTRF); assay type: biochemical
T1 construct: Avi-KRAS G12C (1-169) GppNHp; Avi (N)
Description: Biological Example 2: Disrupting KRAS G12C-Effector Binding (Protein: Protein Interaction HTRF Assay)
A protein: protein interaction (PPI) Homogeneous Time Resolved Fluorescence (HTRF) assay was used to determine the effectiveness of compounds of the present disclosure in disrupting KRAS G12C protein and effector (RAF1 Ras Binding Domain (RBD)) binding.
The HTRF assay used the following reagents and proteins: 50 nM Avi-KRAS G12C (1-169) GppNHp/RAF1 RBD-3×FLAG (52-151); 35 nM Avi-PI3K RBD-3×FLAG; Assay Buffer: 50 mM Tris pH 7.5, 100 mM NaCl, 5 mM MgCl2, 0.1% BSA, 0.01% Tween 20, 10% DMSO; Bead Buffer: 50 mM Tris pH 7.5, 0.01% Tween 20; Assay volume: 20 μL (384 well plate-low volume format); and Compound titration: 30-0.02 μM, 3× dilution series.
The HTRF assay employed the following protocol:
Compounds were dispensed in assay plate (384-well, Grenier Bio-One #784075) using Echo (model 555) with dose response settings: 200 nL final volume, titration from 100 μM as a 10-point dilution series. KRAS proteins were prepared in assay buffer, and dispensed on plates, 5 μL per well, then incubated for 1 h at room temperature, with 700 rpm shaking. RAF1 RBD were prepared in assay buffer, dispensed onto plates, 5 μL per well, and then incubated for 1 h at room temperature, with 700 rpm shaking. Reagent mix was then prepared and dispensed on plates, 10 μL per well, and then incubated for 1 h at room temperature, with 700 rpm shaking.
Plates were analyzed on an Envision plate reader using the following setting: Excitation 320 nm, Bandwidth 75 nm; Emission 615 nm, Bandwidth 85 nm; Gain 100%; Flashes 100; Lag 60 μs. Data was reported as percentage of activity, with DMSO as 100%. Data was plotted and analyzed using Prism 8.
The percent of modification of GppNHp, GTP, or GDP loaded KRAS G12C by MALDI-TOF MS, biochemical Raf1 RBD-KRAS G12C-GppNHp disruption assay IC50, and pERK inhibition IC50 of selected compounds described herein are shown in Table 4. For percent of modification at 15 minutes (MALDI-TOF MS) of GppNHp, GTP, or GDP loaded KRAS G12C: A: percent of modification ≥70%; B: 50≤percent of modification <70%; C: 10%≤percent of modification <50%; D: percent of modification <10%. […] For pERK inhibition in H358 cell assay: A: IC50≤0.1 μM; B: 0.1 μM<IC50≤1 μM; C: IC50>1 μM. Blanks in the table represent that compound was not tested in the indicated assay.

pERK in NCI-H358 cells = assay: Cell-based pERK HTRF assay (pERK inhibition in H358 cells); conditions: 30 min incubation
Procedure, shortened: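 NCI-H358 cells were seeded at 4×10^4 cells/well in RPMI/10% FBS, then treated next day for 30 min at 0.25% DMSO (9-point, 3-fold series from 75 μM). Lysates were read by HTRF (d2/Eu cryptate antibody pair, 615 nm emission) after 4–24 h at room temperature to give pERK IC50.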

[2] = molecular target: T2, GDP-loaded KRAS4b (amino acids 1-169) G12C/C118S protein (Homo sapiens, UniProt P01116, C118S/G12C); assay: Covalent cysteine 12 modification by MALDI-TOF MS, GDP-loaded KRAS G12C; assay type: binding; conditions: 15 minutes reaction time point
T2 construct: KRAS4b (amino acids 1-169) G12C/C118S protein; made in house
Procedure, shortened: (§1)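 With several adducts, each species' height is expressed as a fraction of all observed protein peaks, scored on linear-mode spectra. Reactions run at pH 7.3 (HEPES, 150 mM NaCl, 1 mM MgCl2), using 1 μM protein and a 1:2.5 protein:compound ratio, and are sampled after 15 minutes in the dark.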

[3] = molecular target: T3, GTP-loaded KRAS4b (amino acids 1-169) G12C/C118S protein (Homo sapiens, UniProt P01116, C118S/G12C); assay: Covalent cysteine 12 modification by MALDI-TOF MS, GTP-loaded KRAS G12C; assay type: binding; conditions: 15 minutes reaction time point
T3 construct: KRAS4b (amino acids 1-169) G12C/C118S protein; made in house
Procedure, shortened: as §1

[4] = molecular target: T4, GppNHp-loaded KRAS4b (amino acids 1-169) G12C/C118S protein (Homo sapiens, UniProt P01116, C118S/G12C); assay: Covalent cysteine 12 modification by MALDI-TOF MS, GppNHp-loaded KRAS G12C; assay type: binding; conditions: 15 minutes reaction time point
T4 construct: KRAS4b (amino acids 1-169) G12C/C118S protein; made in house
Procedure, shortened: as §1

IC50 [1] | IC50 (pERK in NCI-H358 cells) | GDP-KRAS G12C percent of modification [2] | GTP-KRAS G12C percent of modification [3] | IC50 (pERK in NCI-H358 cells; Homo sapiens, NCI-H358, 0.5 h) | GppNHp-KRAS G12C percent of modification [4] | SMILES
500 to 5000 nM | 100 to 1000 nM | – | – | – | – | C=CC(=O)N1CC[C@@H](N(C)c2nc(OC[C@@]34CCCN3C[C@H](F)C4)nc3c(F)c(-c4ccc(F)c5sc(N)c(C#N)c45)c(C(F)(F)F)cc23)[C@@H]1C (atropisomer, axis not shown) [Compound 71]
< 500 nM | – | A (percent of modification ≥70%) | – | – | – | C=CC(=O)N1CC[C@H](N(C)c2nc(OC[C@@]34CCCN3C[C@H](F)C4)nc3c(F)c(-c4ccc(F)c5sc(N)c(C#N)c45)c(C(F)(F)F)cc23)[C@@H]1C [Compound 5]
< 500 nM | – | B (50≤percent of modification <70%) | C (10%≤percent of modification <50%) | – | – | C=CC(=O)N1CC[C@@H](N(C)c2nc(OC[C@@]34CCCN3C[C@H](F)C4)nc3c(F)c(-c4ccc(F)c5sc(N)c(C#N)c45)c(C(F)(F)F)cc23)[C@H]1C [Compound 6]
< 500 nM | – | – | – | – | – | C=CC(=O)N1CC[C@@H](N(C)c2nc(OC[C@@]34CCCN3C[C@H](F)C4)nc3cc(-c4ccc(F)c5sc(N)c(C#N)c45)c(F)cc23)[C@H]1C [Compound 15]
< 500 nM | – | – | – | < 100 nM | – | C=CC(=O)N1CC[C@@H](N(C)c2nc(OC[C@@]34CCCN3C[C@H](F)C4)nc3cc(-c4ccc(F)c5sc(N)c(C#N)c45)c(C#N)cc23)[C@H]1C [Compound 16]
< 500 nM | – | – | – | < 100 nM | A (percent of modification ≥70%) | C=CC(=O)N1CC[C@@H](N(C)c2nc(OC[C@@H]3CCCN3C)nc3c(F)c(-c4ccc(F)c5sc(N)c(C#N)c45)c(C(F)(F)F)cc23)[C@@H]1C [Compound 38]
< 500 nM | – | – | – | < 100 nM | A (percent of modification ≥70%) | C=CC(=O)N1CC[C@@H](N(C)c2nc(OC[C@@]34CCCN3C[C@H](F)C4)nc3c(F)c(-c4ccc(F)c5sc(N)c(C#N)c45)ccc23)[C@@H]1C [Compound 43]
< 500 nM | – | A (percent of modification ≥70%) | – | < 100 nM | – | C=CC(=O)N1CC[C@@H](N(C)c2nc(OC[C@@H]3CCCN3CC)nc3c(F)c(-c4ccc(F)c5sc(N)c(C#N)c45)c(Cl)cc23)[C@H]1C [Compound 89]
< 500 nM | – | – | – | < 100 nM | – | [2H]C1([2H])CCC2(C([2H])([2H])Oc3nc(N4CC(C)N(C(=O)C=C)CC4C)c4cc(C(F)(F)F)c(-c5ccc(F)c6sc(N)c(C#N)c56)c(F)c4n3)CC(F)CN12 (stereo not drawn) [Compound 96]
< 500 nM | – | – | – | < 100 nM | – | [2H]C1([2H])CN2C[C@H](F)C[C@]2(COc2nc(N(CC)[C@@H]3CCN(C(=O)C=C)[C@@H]3C)c3cc(F)c(-c4ccc(F)c5sc(N)c(C#N)c45)cc3n2)C1 [Compound 123]
< 500 nM | – | – | – | – | A (percent of modification ≥70%) | [2H]C1([2H])CN2C[C@H](F)C[C@]2(COc2nc(N3C[C@@H](C)N(C(=O)C=C)C[C@@H]3C)c3cc(C(F)(F)F)c(-c4ccc(F)c5sc(N)c(C#N)c45)c(F)c3n2)C1 [Compound 125]
< 500 nM | – | – | – | < 100 nM | A (percent of modification ≥70%) | [2H]C1([2H])CN2C[C@H](F)C[C@]2(COc2nc(N(C)[C@@H]3CCN(C(=O)C=C)[C@@H]3C)c3cc(C(F)(F)F)c(-c4ccc(F)c5sc(N)c(C#N)c45)c(F)c3n2)C1 [Compound 128, 4-(4-(((2R,3R)-1-acryloyl-2-methylpyrrolidin-3-yl)(methyl)amino)-8-fluoro-2-(((2R,7aS)-2-fluorotetrahydro-1H-pyrrolizin-7a(5H)-yl-6,6-d2)methoxy)-6-(trifluoromethyl)quinazolin-7-yl)-2-amino-7-fluorobenzo[b]thiophene-3-carbonitrile]
< 500 nM | – | – | – | < 100 nM | – | C=CC(=O)N1CC[C@@H](N(C)c2nc(OC[C@]34CCCN3C[C@H](F)C4)nc3c(F)c(-c4ccc(F)c5sc(N)c(C#N)c45)c(C(F)(F)F)cc23)[C@H]1C [Compound 157]
< 500 nM | – | – | A (percent of modification ≥70%) | < 100 nM | – | C=CC(=O)N1CC[C@@H](N(C)c2nc(OC[C@@]34CCCN3C[C@H](OC)C4)nc3c(F)c(-c4ccc(F)c5sc(N)c(C#N)c45)c(Cl)cc23)[C@H]1C [Compound 160]
< 500 nM | – | – | – | < 100 nM | A (percent of modification ≥70%) | C=CC(=O)N1CC[C@@H](N(C)c2nc(OC[C@]34CCCN3C[C@H](F)C4)nc3c(F)c(-c4ccc(F)c5sc(N)c(C#N)c45)c(Cl)cc23)[C@H]1C [Compound 162]
< 500 nM | – | – | – | < 100 nM | A (percent of modification ≥70%) | C=CC(=O)N1CC[C@@H](N(CC)c2nc(OC[C@]34CCCN3C[C@H](F)C4)nc3c(F)c(-c4ccc(F)c5sc(N)c(C#N)c45)ccc23)[C@H]1C [Compound 170]
– | – | C (10%≤percent of modification <50%) | C (10%≤percent of modification <50%) | < 100 nM | B (50≤percent of modification <70%) | C=CC(=O)N1CC[C@@H](N(C)c2nc(OC[C@@H]3CC(=C(F)F)CN3C)nc3c(F)c(-c4ccc(F)c5sc(N)c(C#N)c45)c(C(F)(F)F)cc23)[C@H]1C [Compound 205]
– | – | A (percent of modification ≥70%) | B (50≤percent of modification <70%) | 100 to 1000 nM | A (percent of modification ≥70%) | C=CC(=O)N1CCC(N(C)c2nc(OC(C)C3CC(=C(F)F)CN3C)nc3c(F)c(-c4ccc(F)c5sc(N)c(C#N)c45)c(Cl)cc23)C1C (stereo not drawn) [Compound 206]
– | – | B (50≤percent of modification <70%) | C (10%≤percent of modification <50%) | < 100 nM | B (50≤percent of modification <70%) | C=CC(=O)N1CC[C@@H](N(C)c2nc(O[C@@H](C)[C@@H]3C(=C(F)F)CCN3C)nc3c(F)c(-c4ccc(F)c5sc(N)c(C#N)c45)c(C(F)(F)F)cc23)[C@H]1C [Compound 207]

— US20260232666A1, “COMPOSITIONS AND METHODS FOR INHIBITION OF RAS” (TheRas, Inc., priority 2023, published 2026)
